Tests used:
[1] = system: UT-SCC-54C cells; assay: Radiosensitisation of UT-SCC-54C HNSCC cells, regrowth (sulforhodamine B) assay, oxic (Table 16); assay type: cell-based, human; conditions: for IC50: Homo sapiens, read-out: IC50; for S50: compound in combination with 3 Gy of radiation, 50% inhibition of regrowth fraction, UT-SCC-54C; for S50 / radiosensitisation / differential growth inhibition of UT-SCC-54C cells: oxic; for radiosensitisation / differential growth inhibition of UT-SCC-54C cells: 0 or 3 Gy, regrowth assay
[2] = target: human mTOR (Homo sapiens, UniProt P42345); assay: Inhibition of mTOR kinase activity, HotSpot assay, phosphorylation of 4EPB1; conditions: Inhibition of kinase activity (as IC50) mTOR (nM), 10 μM ATP; mean of two replicates; Table 12
[3] = target: human PI3Kα (p110α/p85α) (Homo sapiens, UniProt P42336); assay: Inhibition of PI3Kα kinase activity, ADP-Glo Assay (Reaction Biology); assay type: biochemical; conditions: 10 μM ATP; mean of two replicates; Table 12; read-out: Inhibition of kinase activity (as IC50) PICK
[4] = target: human DNA-PK (Homo sapiens, UniProt P78527); assay: Inhibition of DNA-PKcs kinase activity, HotSpot assay (Reaction Biology), [γ-33P]-ATP phosphorylation of peptide substrate; assay type: biochemical; conditions: 10 μM ATP, 10 μg/ml DNA; mean of two replicates; Table 12; read-out: Inhibition of kinase activity (as IC50) DNA-PK (converted)

Chain of human PI3Kα (p110α/p85α) (P42336 whole entry): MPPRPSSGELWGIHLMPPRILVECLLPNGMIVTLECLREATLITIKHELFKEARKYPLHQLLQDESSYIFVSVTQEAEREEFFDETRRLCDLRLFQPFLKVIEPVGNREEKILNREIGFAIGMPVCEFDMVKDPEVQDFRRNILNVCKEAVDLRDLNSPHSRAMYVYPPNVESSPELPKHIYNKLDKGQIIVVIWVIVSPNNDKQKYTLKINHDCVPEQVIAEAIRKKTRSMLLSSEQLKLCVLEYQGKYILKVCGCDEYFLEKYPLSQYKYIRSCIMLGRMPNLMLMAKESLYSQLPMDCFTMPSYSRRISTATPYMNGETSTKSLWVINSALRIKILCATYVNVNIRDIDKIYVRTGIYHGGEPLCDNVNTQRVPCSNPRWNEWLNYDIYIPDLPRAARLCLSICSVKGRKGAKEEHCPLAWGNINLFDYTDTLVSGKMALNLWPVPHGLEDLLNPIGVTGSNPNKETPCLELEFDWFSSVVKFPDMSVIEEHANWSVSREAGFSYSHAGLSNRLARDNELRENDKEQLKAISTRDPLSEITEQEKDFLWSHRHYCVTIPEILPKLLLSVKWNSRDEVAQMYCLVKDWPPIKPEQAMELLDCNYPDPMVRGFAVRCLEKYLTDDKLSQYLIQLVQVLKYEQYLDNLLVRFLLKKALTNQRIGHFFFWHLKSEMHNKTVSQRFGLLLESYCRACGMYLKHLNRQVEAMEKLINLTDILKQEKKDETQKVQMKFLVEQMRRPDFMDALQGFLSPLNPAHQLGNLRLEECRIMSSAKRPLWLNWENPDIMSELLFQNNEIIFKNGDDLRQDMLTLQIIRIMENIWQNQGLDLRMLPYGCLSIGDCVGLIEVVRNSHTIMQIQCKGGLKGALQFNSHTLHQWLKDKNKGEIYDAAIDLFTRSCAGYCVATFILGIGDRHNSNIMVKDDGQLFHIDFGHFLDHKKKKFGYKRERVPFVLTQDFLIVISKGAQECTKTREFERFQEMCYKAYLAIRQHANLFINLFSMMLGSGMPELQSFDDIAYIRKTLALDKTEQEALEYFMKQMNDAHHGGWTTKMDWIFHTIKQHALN
Chain of human PI3Kα (p110α/p85α) (P27986 whole entry partner): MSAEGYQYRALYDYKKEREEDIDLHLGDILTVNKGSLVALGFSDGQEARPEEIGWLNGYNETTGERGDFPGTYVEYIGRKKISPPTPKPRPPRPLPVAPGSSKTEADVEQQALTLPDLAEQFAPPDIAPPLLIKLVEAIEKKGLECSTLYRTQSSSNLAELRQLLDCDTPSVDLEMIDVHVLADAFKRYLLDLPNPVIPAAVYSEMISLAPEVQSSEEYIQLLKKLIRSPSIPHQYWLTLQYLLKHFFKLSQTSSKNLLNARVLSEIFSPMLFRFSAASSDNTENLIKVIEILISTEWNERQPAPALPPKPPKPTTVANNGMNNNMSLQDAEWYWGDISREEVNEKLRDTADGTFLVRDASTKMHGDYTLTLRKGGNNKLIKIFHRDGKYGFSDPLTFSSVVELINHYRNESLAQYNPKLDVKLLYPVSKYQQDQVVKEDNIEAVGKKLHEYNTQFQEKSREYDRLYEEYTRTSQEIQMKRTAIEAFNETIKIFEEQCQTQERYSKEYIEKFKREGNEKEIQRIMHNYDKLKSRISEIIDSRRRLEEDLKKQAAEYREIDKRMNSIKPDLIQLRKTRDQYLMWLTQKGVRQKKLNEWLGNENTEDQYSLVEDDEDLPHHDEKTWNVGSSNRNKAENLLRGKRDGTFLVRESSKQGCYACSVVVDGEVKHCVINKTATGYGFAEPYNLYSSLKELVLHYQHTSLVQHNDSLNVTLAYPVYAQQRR

Row | IC50 [2] | IC50 [3] | IC50 [4] | Compound | IC50 [1] | S50 [1] | radiosensitisation / differential growth inhibition of UT-SCC-54C cells [1]
1 | 42700 nM | 4.62 µM | 390 nM | COc1cc(C)c(Nc2cc3c(cn2)n(C)c(=O)n3C2CCOCC2)cc1OC [Compound 216, 6-((4,5-Dimethoxy-2-methylphenyl)amino)-3-methyl-1-(tetrahydro-2H-pyran-4-yl)-1,3-dihydro-2H-imidazo[4,5-c]pyridin-2-one] | > 10 µM | 7.4 µM | 
2 | > 100000 nM | 39.2 µM | 754 nM | COc1ccc(N(C(=O)OCc2cnc([N+](=O)[O-])n2C)c2cc3c(cn2)n(C)c(=O)n3C2CCC(OC)CC2)c(C)c1 (stereo not drawn) [Compound 258, (1-Methyl-2-nitro-1H-imidazol-5-yl)methyl (4-methoxy-2-methylphenyl)(1-(4-methoxycyclohexyl)-3-methyl-2-oxo-2,3-dihydro-1H-imidazo[4,5-c]pyridin-6-yl)carbamate] | > 10 µM | >10 µM | did not display any differential growth inhibition
3 | > 100000 nM | 0.678 µM | 0.13 nM | Cc1ccc(S(C)(=O)=O)cc1Nc1cc2c(cn1)n(C)c(=O)n2C1CCOCC1 [Compound 123, 3-Methyl-6-((2-methyl-5-(methylsulfonyl)phenyl)amino)-1-(tetrahydro-2H-pyran-4-yl)-1,3-dihydro-2H-imidazo[4,5-c]pyridin-2-one] | > 10 µM | 0.74 µM | 
4 | 58500 nM | 1.65 µM | 3.4 nM | Cc1cc2nccnc2cc1Nc1cc2c(cn1)n(C)c(=O)n2C1CCOCC1 [Compound 225, 3-Methyl-6-((7-methylquinoxalin-6-yl)amino)-1-(tetrahydro-2H-pyran-4-yl)-1,3-dihydro-2H-imidazo[4,5-c]pyridin-2-one] | > 10 µM | 0.27 µM | 
5 | 68400 nM | 14.2 µM | 94 nM | Cc1cc(Cl)ncc1Nc1cc2c(cn1)n(C)c(=O)n2C1CCOCC1 [Compound 218, 6-((6-Chloro-4-methylpyridin-3-yl)amino)-3-methyl-1-(tetrahydro-2H-pyran-4-yl)-1,3-dihydro-2H-imidazo[4,5-c]pyridin-2-one] | > 10 µM | 3.1 µM | 
6 | 76300 nM | 33.1 µM | 52 nM | Cc1cc(Cl)cnc1Nc1cc2c(cn1)n(C)c(=O)n2C1CCOCC1 [Compound 217, 6-((5-Chloro-3-methylpyridin-2-yl)amino)-3-methyl-1-(tetrahydro-2H-pyran-4-yl)-1,3-dihydro-2H-imidazo[4,5-c]pyridin-2-one] | > 10 µM | 3.9 µM | 
7 | 33400 nM | 0.033 µM | 0.09 nM | COc1ccc(-n2c(=O)n(C)c3cnc(Nc4cc(S(C)(=O)=O)ccc4C)cc32)cc1 [Compound 197, 1-(4-Methoxyphenyl)-3-methyl-6-((2-methyl-5-(methylsulfonyl)phenyl)amino)-1,3-dihydro-2H-imidazo[4,5-c]pyridin-2-one] |  |  | 
8 | 13400 nM | 11 µM | 47.7 nM | Cc1nc2cc(Nc3cc4c(cn3)n(C)c(=O)n4C3CCOCC3)c(C)cc2o1 [Compound 131, 6-((2,6-Dimethylbenzo[d]oxazol-5-yl)amino)-3-methyl-1-(tetrahydro-2H-pyran-4-yl)-1,3-dihydro-2H-imidazo[4,5-c]pyridin-2-one] | > 10 µM | 4.8 µM | 
9 | > 100000 nM | 24 µM | 170 nM | COc1cnc(Nc2cc3c(cn2)n(C)c(=O)n3C2CCOCC2)c(C)c1 [Compound 220, 6-((5-Methoxy-3-methylpyridin-2-yl)amino)-3-methyl-1-(tetrahydro-2H-pyran-4-yl)-1,3-dihydro-2H-imidazo[4,5-c]pyridin-2-one] | > 10 µM | 4.4 µM | 
10 | > 100000 nM | > 10 µM | 871 nM | COc1ccc(N(C(=O)OCc2cnc([N+](=O)[O-])n2C)c2cc3c(cn2)n(C)c(=O)n3C2CCCC2)c(C)c1 [Compound 247, (1-Methyl-2-nitro-1H-imidazol-5-yl)methyl (1-cyclopentyl-3-methyl-2-oxo-2,3-dihydro-1H-imidazo[4,5-c]pyridin-6-yl)(4-methoxy-2-methylphenyl)carbamate] | > 10 µM | >10 µM | did not display any differential growth inhibition
11 | > 100000 nM | > 100 µM | 203 nM | Cc1cc(Cl)ccc1N(C(=O)OCc1cnc([N+](=O)[O-])n1C)c1cc2c(cn1)n(C)c(=O)n2C1CCOCC1 [Compound 257, (1-Methyl-2-nitro-1H-imidazol-5-yl)methyl (4-chloro-2-methylphenyl)(3-methyl-2-oxo-1-(tetrahydro-2H-pyran-4-yl)-2,3-dihydro-1H-imidazo[4,5-c]pyridin-6-yl)carbamate] | > 10 µM | >10 µM | did not display any differential growth inhibition
12 | 27500 nM | 2.17 µM | 0.64 nM | COC1CCC(n2c(=O)n(C)c3cnc(Nc4ccc(Cl)cc4C)cc32)CC1 (stereo not drawn) [Compound 173, 6-((4-Chloro-2-methylphenyl)amino)-1-(4-methoxycyclohexyl)-3-methyl-1,3-dihydro-2H-imidazo[4,5-c]pyridin-2-one] | > 10 µM | 0.85 µM | 
13 | 19500 nM | 0.264 µM | < 0.05 nM | COc1ccc(-n2c(=O)n(C)c3cnc(Nc4ccc(O)cc4C)cc32)cc1 [Compound 200, 6-((4-Hydroxy-2-methylphenyl)amino)-1-(4-methoxyphenyl)-3-methyl-1,3-dihydro-2H-imidazo[4,5-c]pyridin-2-one] | > 10 µM | 0.31 µM | 
14 | > 100000 nM | > 10 µM | 1420 nM | Cc1nc2ccc(Nc3cc4c(cn3)n(C)c(=O)n4C3CCOCC3)cc2o1 [Compound 128, 3-Methyl-6-((2-methylbenzo[d]oxazol-6-yl)amino)-1-(tetrahydro-2H-pyran-4-yl)-1,3-dihydro-2H-imidazo[4,5-c]pyridin-2-one] |  |  | 
15 | 41200 nM | 11.8 µM | 3940 nM | COc1ccc(-c2ccc(Nc3cc4c(cn3)n(C)c(=O)n4C3CCOCC3)cc2)cn1 [Compound 223, 6-((4-(6-Methoxypyridin-3-yl)phenyl)amino)-3-methyl-1-(tetrahydro-2H-pyran-4-yl)-1,3-dihydro-2H-imidazo[4,5-c]pyridin-2-one] |  |  | 
16 | 19600 nM | 0.151 µM | 3.6 nM | Cc1cc2ncc(C(=O)O)n2cc1Nc1cc2c(cn1)n(C)c(=O)n2C1CCOCC1 [Compound 136, 7-Methyl-6-((3-methyl-2-oxo-1-(tetrahydro-2H-pyran-4-yl)-2,3-dihydro-1H-imidazo[4,5-c]pyridin-6-yl)amino)imidazo[1,2-a]pyridine-3-carboxylic acid] |  |  | 
17 | 15600 nM | 0.74 µM | 104 nM | COc1ccc(Nc2cc3c(cn2)n(C)c(=O)n3C2CCN(C(=O)OCc3cnc([N+](=O)[O-])n3C)CC2)c(C)c1 [Compound 252, (1-Methyl-2-nitro-1H-imidazol-5-yl)methyl 4-(6-((4-methoxy-2-methylphenyl)amino)-3-methyl-2-oxo-2,3-dihydro-1H-imidazo[4,5-c]pyridin-1-yl)piperidine-1-carboxylate] |  |  | 
